Assay results from patent US20180118722A1, “NOVEL ARYL-CYANOGUANIDINE COMPOUNDS” (Bayer Pharma Aktiengesellschaft, priority 2015, published 2018).
pIC50: −log10 of the molar value.

Key:
SMYD2 [1] = target: T1, SMYD2 (Homo sapiens, UniProt Q9NRG4); experiment: In Cell Western (ICW) cell-based assay for detection of SMYD2 methylation activity (p53K370me1) in SMYD2 overexpressing KYSE-150 cells; parameters: expressed in transfected cells; host or cells: KYSE-150 (human esophageal carcinoma, DSMZ ACC 375); details: 72 h treatment, p53K370me1 signal, read-out: IC50 [mol/l] (ICW assay)
T1 sequence (Q9NRG4 whole entry): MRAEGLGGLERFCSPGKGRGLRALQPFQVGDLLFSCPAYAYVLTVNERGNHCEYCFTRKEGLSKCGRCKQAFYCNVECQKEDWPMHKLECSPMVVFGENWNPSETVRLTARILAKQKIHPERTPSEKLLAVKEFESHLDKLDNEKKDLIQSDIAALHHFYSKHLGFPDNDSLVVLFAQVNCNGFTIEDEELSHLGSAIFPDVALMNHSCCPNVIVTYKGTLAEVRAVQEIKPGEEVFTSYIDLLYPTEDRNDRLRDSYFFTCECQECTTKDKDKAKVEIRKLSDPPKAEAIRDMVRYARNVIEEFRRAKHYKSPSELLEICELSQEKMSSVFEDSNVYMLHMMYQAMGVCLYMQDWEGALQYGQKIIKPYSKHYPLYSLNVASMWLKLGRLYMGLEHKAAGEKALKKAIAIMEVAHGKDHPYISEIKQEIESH
Source text: 1.2 Cell-Based Assay for Detection of SMYD2 Methylation Activity
For the detection of SMYD2 cellular methylation activity an In Cell Western (ICW) assay was established. This assay allows rapid processing of multiple samples for SMYD2 methylation derived immunofluorescence signals, with normalization to cell number via the use of the nucleic acid dye DRAQS. KYSE-150 cells (human esophageal carcinoma cell line; DSMZ-German Collection of Microorganisms and Cell Cultures; No: ACC 375) have been stably transfected with a construct expressing wild-type SMYD2 (NCBI Reference Sequence: NP_064582.2). […]
For conducting the ICW assay 5000 SMYD2 overexpressing KYSE-150 cells/well were seeded in 96-well plates (SIGMA) and cultivated for 24 h. […] After 5 washes with PBS, the fluorescence in each well was measured on an Odyssey (LI-COR) scanner at 800 nm (p53K370me1 signal; 764 nm excitation) and 700 nm (DRAQS signal; 683 nm excitation). Fluorescence intensity was quantified and normalized to background and DRAQS signals. IC50 values were calculated by fitting the normalized inhibition data to a 4-parameter logistic equation (Minimum, Maximum, IC50, Hill; Y=Max+(Min−Max)/(1+(X/IC50)Hill)) for each tested compound. For IC50 determination C0 (=no inhibition) was defined as the signal measured for DMSO treated controls. […]

SMYD2 [2] = target: T1, SMYD2; experiment: Scintillation proximity assay (SPA) for detection of SMYD2 enzymatic inhibition; format: biochemical; parameters: The SMYD2 full length enzyme was produced in-house by expression (with an N-terminal 6×His tag) in E. coli; 6xHis (N); made in house; host or cells: E. coli; details: p53 Peptide substrate 1.0 μM, 3H-SAM 60 nM, 30 min at 22° C.; read-out: IC50 [mol/l] (SPA Assay)
Source text: 1.1 Scintillation Proximity Assay (SPA) for Detection of SMYD2 Enzymatic Inhibition
SMYD2 inhibitory activities of the compounds described in the present invention were quantified using a scintillation proximity assay (SPA) which measures methylation by the enzyme of the synthetic, biotinylated peptide Btn-Ahx-[…]−Amid×TFA (Biosyntan) derived from p53 and referred to from here on as “p53 Peptide”. The SMYD2 full length enzyme was produced in-house by expression (with an N-terminal 6×His tag) in E. coli and purification by affinity chromatography on a Ni-NTA Sepharose column followed by a size exclusion chromatography step on a Superdex 200 16/60 column (GE Healthcare).
In a typical assay 11 different concentrations of each compound (0.1 nM, 0.33 nM, 1.1 nM, 3.8 nM, 13 nM, 44 nM, 0.15 μM, 0.51 μM, 1.7 μM, 5.9 μM and 20 μM) were tested in duplicate within the same microtiter plate. To this end, 100-fold concentrated compound solutions (in DMSO) were previously prepared by serial dilution (1:3.4) of 2 mM stocks in a clear low volume 384-well source microtiter plate (Greiner Bio-One), from which 50 nl of compound solutions were transferred into a white low volume test microtiter plate from the same supplier. […] IC50 values were calculated by fitting the normalized inhibition data to a 4-parameter logistic equation using the “Screener” analysis software from Genedata.

pIC50 (SMYD2 [1]) | pIC50 (SMYD2 [2]) | Compound
6.77 | 6.52 | N#C/N=C(/Nc1cccc(OC(F)F)c1)N1CC(N2CCC(N)C2=O)C(c2ccc(Cl)c(Cl)c2)=N1 (stereo not shown) [Example 2, 4-(3-amino-2-oxopyrrolidin-1-yl)-N′-cyano-3-(3,4-dichlorophenyl)-N-[3-(difluoromethoxy)phenyl]-4,5-dihydro-1H-pyrazole-1-carboximidamide]
7.00 | 7.50 | N#C/N=C(/Nc1cccc(OC(F)F)c1)N1CC(N2CCCC(N)C2=O)C(c2ccc(Cl)c(Cl)c2)=N1 (stereo not shown) [Example 1, 4-(3-amino-2-oxopiperidin-1-yl)-N′-cyano-3-(3 ,4-dichlorophenyl)-N-[3-(difluoromethoxy)phenyl]-4,5-dihydro-1H-pyrazole-1-carboximidamide]
